Source: US20250332173A1, “COMPOUNDS AND METHODS FOR MODULATING NUCLEIC ACID SPLICING” (REMIX THERAPEUTICS INC., priority 2021, published 2025)
pIC50: −log10 of the molar value. Where two headings read alike, the source gives them in different places.

Assays:
[1] = test system: Target C; assay: HiBiT protein abundance assay, Target C (Promega Nano-Glo HiBiT Lytic Detection System, knock-in K562 cell line); format: cell-based, human; details: HiBiT K562 cell line, 24 hours, top dose 10 μM, read-out: Effect on protein abundance, Target C (IC50 category)
In short: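 HiBiT knock-in K562 cells (10,000/well) were treated for 24 h at 37 °C with a 10-point 3-fold dilution series, top final concentration 10 μM, DMSO ≤0.25%. Lytic HiBiT luminescence was read, normalized to unmodified K562 and DMSO-treated controls, and IC50 was interpolated from a four-parameter logistic fit.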

[2] = test system: MYB; assay: HiBiT protein abundance assay, MYB HiBiT K562 cell line; format: cell-based, human; details: HiBiT K562 cell line, 24 hours, top dose 10 μM; read-out: Effect on protein abundance, MYB (IC50 category)
In short: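 Endogenous targets in K562 knock-in lines carried a HiBiT tag and were treated for 24 h at 37 °C with 10-point 3-fold dilutions (top 10 μM final, DMSO ≤0.25%). Abundance was read as lytic Nano-Glo HiBiT luminescence. IC50 came from a four-parameter logistic fit of normalized response.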

[3] = test system: K562 (human chronic myelogenous leukemia) cells; assay: Cell Titer Glo 2.0 cell viability assay; format: cell-based; details: Homo sapiens, K562, 72 h, K562 cells, 72 hours, Cell Titer Glo 2.0; read-out: K562 GI50
Method: Compounds described herein were screened for toxicity in K562 (human chronic myelogenous leukemia) cells using a Cell Titer Glo 2.0 assay.
Cells were plated at 500 cells/well (K562 cells) in 45 μL of IMDM supplemented with 1000 FBS in a 384-well opaque plate. Wells containing only medium were used as a blank control. Test compounds (e.g., compounds ofFormula (I), (II), (III), (IV), (V), (VI), (VII), (VIII), and (IX)) were first serially diluted in DMSO then diluted 1:100 with IMDM+10% FBS. The final concentration of DMSO was 0.1% in each well. The cells were incubated for 72 hours at 37° C. and 500 CO2 before assaying with Cell Titer Glo 2.0 reagent.

Structure (SMILES)	pIC50 ([1]; Homo sapiens, K562, 24 h)	pIC50 [2]	GI50 [3] [nM]	pIC50 [1]
Cc1cn2cc(-c3ccc4c(c3)CCN(C3CCNCC3)C4=O)cc(C(F)(F)F)c2n1 [Compound 252]	< 5.00	5.00 to 6.00	1000 to 10000	–
Cc1cn2nc(-c3ccc4c(=O)n(C5CCNC5)ncc4c3)cc(C)c2n1 (stereo not drawn) [Compound 264]	< 5.00	5.00 to 6.00	1000 to 10000	–
Cc1cn2nc(-c3ccc4c(=O)n(C5CCNCC5)ncc4c3)nc2c(C)n1 [Compound 259]	6.00 to 7.00	6.00 to 7.00	100 to 1000	–
Cn1cc2ccc(-c3ccc4c(=O)n(C5CCNCC5)ncc4c3)cc2n1 [Compound 263]	5.00 to 6.00	< 5.00	1000 to 10000	–
Cc1cn2cc(-c3ccc4c(=O)n(C5CCNCC5)cnc4c3)c(C)cc2n1 [Compound 244]	< 5.00	< 5.00	> 10000	–
Cc1cn2nc(-c3cc(F)c4c(=O)n(C5CCNCC5)cnc4c3)cc(C)c2n1 [Compound 243]	> 7.00	> 7.00	< 100	–
Cc1cn2cc(-c3ccc4c(=O)n(C5CCN(C)CC5)cnc4c3)c(C)cc2n1 [Compound 246]	5.00 to 6.00	5.00 to 6.00	1000 to 10000	–
Cc1cn2cc(-c3ccc4c(=O)n(C5CCNCC5)ncc4c3)cc(F)c2n1 [Compound 248]	6.00 to 7.00	> 7.00	< 100	–
Cc1cn2cc(-c3ccc4c(=O)n(C5CCNCC5)ncc4c3)c(C)cc2n1 [Compound 254]	5.00 to 6.00	5.00 to 6.00	1000 to 10000	–
Cc1nc2c(F)cc(-c3ccc4c(=O)n(C5CCNCC5)ncc4c3)cc2o1 [Compound 250]	6.00 to 7.00	> 7.00	< 100	–
Cc1cn2cc(-c3ccc4c(=O)n(C5CCNCC5)ncc4c3)cc(C(F)(F)F)c2n1 [Compound 262]	5.00 to 6.00	6.00 to 7.00	100 to 1000	–
Cc1cn2cc(-c3ccc4c(=O)n(C5CCNCC5)ncc4c3)ncc2n1 [Compound 255]	< 5.00	< 5.00	100 to 1000	–
Cc1cn2cc(-c3ccc4c(=O)n(C5CCNCC5)ncc4c3)cc(Cl)c2n1 [Compound 256]	6.00 to 7.00	6.00 to 7.00	< 100	–
Cc1nc2c(F)cc(-c3ccc4c(=O)n(C5CCNCC5)ncc4c3)cc2s1 [Compound 253]	5.00 to 6.00	5.00 to 6.00	100 to 1000	–
Cc1cn2cc(-c3ccc4c(c3)CCN(C3CCNCC3)C4=O)cc(F)c2n1 [Compound 247]	5.00 to 6.00	6.00 to 7.00	100 to 1000	–
Cc1cc(-c2ccc3c(=O)n(C4CCNCC4)ncc3c2)cc2cn(C)nc12 [Compound 251]	6.00 to 7.00	6.00 to 7.00	1000 to 10000	–
Cn1cc2cc(-c3ccc4c(=O)n(C5CCNCC5)ncc4c3)cc(F)c2n1 [Compound 249]	5.00 to 6.00	5.00 to 6.00	1000 to 10000	–
Cc1nc2c(F)cc(-c3ccc4c(=O)n(C5CCNCC5)cnc4c3)cc2o1 [Compound 245]	6.00 to 7.00	6.00 to 7.00	100 to 1000	–
Cc1cn2nc(-c3ccc4c(=O)n([C@@H]5CCNC6(CC6)C5)cnc4c3)cc(C)c2n1 [Compound 444]	–	6.00 to 7.00	100 to 1000	6.00 to 7.00
Cc1cn2nc(-c3ccc4c(=O)n(C5CCNCC5)ncc4c3)cc2c(C)n1 [Compound 260]	5.00 to 6.00	6.00 to 7.00	100 to 1000	–
Cc1cn2cc(-c3ccc4c(=O)n(C5CCNCC5)ncc4c3)cc(C)c2n1 [Compound 257]	6.00 to 7.00	6.00 to 7.00	< 100	–
O=c1c2ccc(-c3cn[nH]c3)cc2cnn1C1CCNCC1 [Compound 261]	< 5.00	< 5.00	> 10000	–
Cc1cn2nc(-c3ccc4c(=O)n(C5CCN(C)CC5)ncc4c3)cc(C)c2n1 [Compound 265]	6.00 to 7.00	6.00 to 7.00	100 to 1000	–
